Measurements as given in EP4353711A1, “QUINOLIN-2-YL NITRONES FOR THE TREATMENT AND PREVENTION OF STROKE” (Consejo Superior De Investigaciones Científicas, priority 2022, dated 2024).

System: male C57BL/6J mice
Experiment: pMCAO stroke model, infarct volume by T2-weighted MRI
Type: in vivo
Conditions: 85 mg/kg QN11 intraperitoneally 15 min after arterial ligature
Procedure: To study of the effects of QN11 on stroke recovery, administration of the vehicle and QN11 molecule was performed intraperitoneally, to 8-week-old male C57BL/6J mice (Harlan) weighing 25-30 g. All procedures with animals were carried out under a protocol approved by the Ethical Committee of the Spanish National Research Council (CSIC), and recommendations of the European Council. A special effort was made to keep to a minimum necessary the number of animals to achieve adequate significance. For surgery, anaesthesia induction was carried out with 3% isoflurane (in 70% N2O, 30% O2), followed by 2% isoflurane for maintenance during stroke procedure. Rectal temperature was maintained at 36.5 °C with the use of a heating pad. The common branch of the middle cerebral artery was, after craniotomy, exposed and occluded permanently by suture ligation. To ensure a complete artery occlusion during surgery, cortical blood flow was monitored by non-invasive laser Doppler flowmetry, as a quality control, with the aid of a Perimed equipment (PeriFlux System 5000 Stroke Model Monitor, Perimed, Järfälla, Sweden). […] Animals subjected to surgery for longer than 15 min were excluded of the study. Physiological parameters were maintained. […]
MRI is the most commonly used diagnostic tool for stroke. […] All MRI data was analysed using ImageJ software. […]

SMILES: [O-]/[N+](=C\c1ccc2cccc(O)c2n1)Cc1ccccc1 [QN11, (Z)-N-Benzyl-1-(8-hydroxyquinolin-2-yl)methanimine oxide]
- reduction in the percentage of brain infarct volume (MRI 48 h after pMCAO, compared with vehicle-treated animals (group b)): 74,47%
- infarct volume with regard to the whole brain volume (T2WI MRI 48 h after pMCAO, vehicle group b 2.453 %): 0.6262%
